Experimental data reported in patent US20100305113A1, “Substituted Imidazopyridazines as Lipid Kinase Inhibitors” (priority 2007, published 2010).

Key:
Assay type in all cases: biochemical
Conditions in all cases: Enzymatic Data
PI3K beta = target: T1, PI3K beta (Homo sapiens, UniProt P42338); assay: PI3K beta enzymatic assay (Kinase-Glo luminescence)
T1 construct: for the full-length p110-b subunit are generated and fused by overlapping PCR; p85(iSH2) fusion partner (same polypeptide; see partner chain) (N); Gly linker (N); His tag (C); made in house; host or cells: baculovirus; Tn5 (Trichoplusia ni) or TiniPro insect cells
Description: (§1) In a more preferred assay, the kinase reaction is performed in a final volume of 10 μL per well of a low volume non binding CORNING, 384 well black plate (Cat. No. #3676). The final concentrations of ATP and phosphatidyl inositol (PI) in the assay are 1 μM and 10 μg/mL respectively. The reaction is started by the addition of ATP.
(§2) The components of the assay are added per well as follows:
(§3) 50 nL test compounds in 90% DMSO per well, in columns 1-20, 8 concentrations (⅓ and 1/3.33 serial dilution step) in single. • Low control: 50 nL of 90% DMSO in half the wells of columns 23-24 (0.45% in final). • High control: 50 nL of reference compound (e.g. compound of Example 7 in WO 2006/122806, incorporated by reference herein that regard) in the other half of columns 23-24 (2.5 μM in final). • Standard: 50 nL of reference compound as just mentioned diluted as the test compounds in columns 21-22 • 20 mL ‘buffer’ are prepared per assay: • 200 μL of 1M TRIS HCl pH7.5 (10 mM in final) • 60 μL of 1M MgCl2 (3 mM in final) • 500 μL of 2M NaCl (50 mM in final) • 100 μL of 10% CHAPS (0.05% in final) • 200 μL of 100 mM DTT (1 mM in final) • 18.94 mL of nanopure water • 10 mL ‘PI’ are prepared per assay: • 200 μL of 1 mg/ml L-alpha-Phosphatidylinositol (Liver Bovine, Avanti Polar Lipids Cat. No. 840042C MW=909.12) prepared in 3% OctylGlucoside ([…]) • 9.8 mL of ‘buffer’ • 10 mL ‘ATP’ are prepared per assay: • 6.7 μL of 3 mM stock of ATP giving a final concentration of 1 μM per well • 10 mL of ‘buffer’ • 2.5 mL of each PI3K construct are prepared per assay in ‘PI’ with the following final concentration: • 10 nM PI3K alfa BV-1075 • 25 nM beta BV-949 • 10 nM delta BV-1060 • 150 nM gamma BV-950 • 5 μL of ‘PI/PI3K’ are added per well. • 5 μl ‘ATP’ are added per well to start the reaction. • The plates are then incubated at room temperature for 60 minutes (alfa, beta, delta) or 120 minutes (gamma). • The reaction is terminated by the addition of 10 μL Kinase-Glo (Promega Cat. No. #6714). • The assay plates are read after 10 minutes in Synergy 2 reader (BioTek, Vermont USA) with an integration time of 100 milliseconds and sensitivity set to 191. • Output: The High control is around 60′000 counts and the Low control is 30′000 or lower • This luminescence assay gives a useful Z′ ratio between 0.4 and 0.7 The Z′ value is a universal measurement of the robustness of an assay. A Z′ between 0.5 and 1.0 is considered an excellent assay.
PI3Kβ BV-949 p85(iSH2)-Gly linker-p110b (Full-Length)-C-Term His Tag
(§4) IC50 is determined by a four parameter curve fitting routine that comes aloneg with “excel fit”. A 4 Parameter logistic equation is used to calculate IC50 values (IDBS XLfit) of the percentage inhibition of each compound at 8 concentrations (usually 10, 3.0, 1.0, 0.3, 0.1, 0.030, 0.010 and 0.003 μM). Alternatively, IC50 values are calculated using idbsXLfit model 204, which is a 4 parameter logistic model.

PI3K alfa = target: T2, PI3K alfa (Homo sapiens, UniProt P42336); assay: PI3K alfa enzymatic assay (Kinase-Glo luminescence)
T2 construct: p85(iSH2) fusion partner (same polypeptide; see partner chain) (N); 12x Gly linker (N); His tag (C); made in house; host or cells: baculovirus; Tn5 (Trichoplusia ni) or TiniPro insect cells
Description: as §1, §2, §3, §4

PI3K gamma = target: T3, PI3K gamma (Homo sapiens, UniProt P48736); assay: PI3K gamma enzymatic assay (Kinase-Glo luminescence)
T3 construct: His tag (C); made in house; host or cells: construct from Roger Williams lab (MRC LMB); baculovirus (pVL1393); Tn5 (Trichoplusia ni) or TiniPro insect cells
Description: as §1, §2, §3, §4

PI3K delta = target: T4, PI3K delta (Homo sapiens, UniProt O00329); assay: PI3K delta enzymatic assay (Kinase-Glo luminescence)
T4 construct: for the full-length p110-d subunit are generated and fused by overlapping PCR; p85(iSH2) fusion partner (same polypeptide; see partner chain) (N); Gly linker (N); His tag (C); made in house; host or cells: baculovirus; Tn5 (Trichoplusia ni) or TiniPro insect cells
Description: as §1, §2, §3
PI3Kδ BV-1060 p85(iSH2)-Gly Linker-p110d (Full-Length)-C-term His Tact
as §4

T1 sequence (P42338 with tags, fused parts or gaps limits assumed): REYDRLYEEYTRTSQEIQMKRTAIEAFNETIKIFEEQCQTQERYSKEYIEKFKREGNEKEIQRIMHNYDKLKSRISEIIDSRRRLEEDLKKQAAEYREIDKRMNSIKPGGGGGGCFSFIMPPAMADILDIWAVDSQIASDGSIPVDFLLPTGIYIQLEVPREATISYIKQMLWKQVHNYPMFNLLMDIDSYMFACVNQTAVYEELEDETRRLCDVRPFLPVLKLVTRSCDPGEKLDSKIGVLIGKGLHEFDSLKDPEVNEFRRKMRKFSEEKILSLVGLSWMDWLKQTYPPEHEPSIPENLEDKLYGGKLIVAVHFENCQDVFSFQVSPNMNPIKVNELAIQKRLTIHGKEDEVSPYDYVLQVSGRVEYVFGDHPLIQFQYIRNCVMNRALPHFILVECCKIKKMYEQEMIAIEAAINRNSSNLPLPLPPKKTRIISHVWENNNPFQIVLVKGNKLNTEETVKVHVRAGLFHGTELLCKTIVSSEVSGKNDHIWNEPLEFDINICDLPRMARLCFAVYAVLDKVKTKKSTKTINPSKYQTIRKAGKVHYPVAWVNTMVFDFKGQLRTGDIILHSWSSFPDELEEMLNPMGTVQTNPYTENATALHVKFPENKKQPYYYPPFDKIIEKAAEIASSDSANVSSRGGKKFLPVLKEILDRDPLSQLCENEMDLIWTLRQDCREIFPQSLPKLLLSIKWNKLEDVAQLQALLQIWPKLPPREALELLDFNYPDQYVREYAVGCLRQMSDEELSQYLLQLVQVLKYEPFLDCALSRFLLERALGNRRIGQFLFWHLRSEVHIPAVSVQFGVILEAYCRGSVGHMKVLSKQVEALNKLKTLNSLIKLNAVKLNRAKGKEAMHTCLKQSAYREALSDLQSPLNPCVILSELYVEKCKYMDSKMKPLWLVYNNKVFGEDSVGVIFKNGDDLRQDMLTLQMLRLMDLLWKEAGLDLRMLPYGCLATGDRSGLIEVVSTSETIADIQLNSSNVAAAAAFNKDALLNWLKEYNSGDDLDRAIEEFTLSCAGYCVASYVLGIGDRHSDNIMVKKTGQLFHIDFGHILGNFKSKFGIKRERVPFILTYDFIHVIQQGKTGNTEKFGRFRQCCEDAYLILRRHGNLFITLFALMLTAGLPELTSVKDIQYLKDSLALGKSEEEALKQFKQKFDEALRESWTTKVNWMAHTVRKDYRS
T3 sequence (P48736 144-1102 limits assumed): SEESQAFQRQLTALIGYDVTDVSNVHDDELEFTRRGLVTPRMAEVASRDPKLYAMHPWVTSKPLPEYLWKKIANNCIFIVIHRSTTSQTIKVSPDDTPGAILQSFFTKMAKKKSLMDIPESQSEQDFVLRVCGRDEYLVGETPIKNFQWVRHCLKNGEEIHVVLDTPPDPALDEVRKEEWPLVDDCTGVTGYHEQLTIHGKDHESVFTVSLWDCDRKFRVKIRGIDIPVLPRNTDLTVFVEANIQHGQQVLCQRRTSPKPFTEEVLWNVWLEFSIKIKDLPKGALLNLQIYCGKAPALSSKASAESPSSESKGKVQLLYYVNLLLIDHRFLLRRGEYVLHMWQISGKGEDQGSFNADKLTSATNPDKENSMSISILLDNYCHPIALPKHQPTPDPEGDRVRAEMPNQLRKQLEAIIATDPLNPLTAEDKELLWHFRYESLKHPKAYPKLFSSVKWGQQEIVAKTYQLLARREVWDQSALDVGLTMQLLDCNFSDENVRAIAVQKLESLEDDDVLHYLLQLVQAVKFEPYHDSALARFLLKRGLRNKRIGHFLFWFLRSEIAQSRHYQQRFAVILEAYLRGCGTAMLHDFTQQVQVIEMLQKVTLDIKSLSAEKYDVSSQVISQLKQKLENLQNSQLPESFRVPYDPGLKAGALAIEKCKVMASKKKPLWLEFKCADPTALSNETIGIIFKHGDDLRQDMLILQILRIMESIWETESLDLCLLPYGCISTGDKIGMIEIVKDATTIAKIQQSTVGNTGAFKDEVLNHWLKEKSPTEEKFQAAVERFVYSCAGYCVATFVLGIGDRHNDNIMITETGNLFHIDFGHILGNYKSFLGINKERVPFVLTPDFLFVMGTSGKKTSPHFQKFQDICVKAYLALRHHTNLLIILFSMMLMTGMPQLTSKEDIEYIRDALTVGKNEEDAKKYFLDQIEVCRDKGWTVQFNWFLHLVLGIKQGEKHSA
T4 sequence (O00329 with tags, fused parts or gaps limits assumed): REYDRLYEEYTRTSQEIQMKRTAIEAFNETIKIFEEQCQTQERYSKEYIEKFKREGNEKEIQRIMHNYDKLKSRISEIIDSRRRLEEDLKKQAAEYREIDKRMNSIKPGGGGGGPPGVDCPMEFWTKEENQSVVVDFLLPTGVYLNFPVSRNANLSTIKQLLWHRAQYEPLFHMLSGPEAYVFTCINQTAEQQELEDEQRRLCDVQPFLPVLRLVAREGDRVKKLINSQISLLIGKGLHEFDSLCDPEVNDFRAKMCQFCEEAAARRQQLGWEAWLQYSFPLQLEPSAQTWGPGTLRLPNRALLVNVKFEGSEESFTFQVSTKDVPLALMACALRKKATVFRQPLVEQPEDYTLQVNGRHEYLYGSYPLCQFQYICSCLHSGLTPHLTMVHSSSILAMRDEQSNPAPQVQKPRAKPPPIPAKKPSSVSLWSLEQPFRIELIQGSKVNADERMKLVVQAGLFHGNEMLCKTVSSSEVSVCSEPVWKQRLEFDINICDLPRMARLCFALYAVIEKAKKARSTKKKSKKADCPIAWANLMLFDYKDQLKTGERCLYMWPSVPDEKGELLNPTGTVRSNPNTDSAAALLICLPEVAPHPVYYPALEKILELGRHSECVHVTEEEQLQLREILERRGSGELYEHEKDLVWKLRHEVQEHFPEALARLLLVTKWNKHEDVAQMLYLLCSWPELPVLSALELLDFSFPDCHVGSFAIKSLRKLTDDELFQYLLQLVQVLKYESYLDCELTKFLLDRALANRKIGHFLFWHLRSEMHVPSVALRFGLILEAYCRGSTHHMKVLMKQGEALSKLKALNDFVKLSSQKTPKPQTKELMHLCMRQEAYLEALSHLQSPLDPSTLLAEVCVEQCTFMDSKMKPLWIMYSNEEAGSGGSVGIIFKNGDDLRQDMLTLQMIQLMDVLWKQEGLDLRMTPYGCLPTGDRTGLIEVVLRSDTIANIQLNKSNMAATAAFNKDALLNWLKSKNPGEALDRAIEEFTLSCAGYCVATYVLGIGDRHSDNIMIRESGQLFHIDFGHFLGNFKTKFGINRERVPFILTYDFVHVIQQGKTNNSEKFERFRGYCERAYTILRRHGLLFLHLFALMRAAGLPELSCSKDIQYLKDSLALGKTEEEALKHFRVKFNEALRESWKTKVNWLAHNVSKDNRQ
T2 sequence (P42336 with tags, fused parts or gaps limits assumed): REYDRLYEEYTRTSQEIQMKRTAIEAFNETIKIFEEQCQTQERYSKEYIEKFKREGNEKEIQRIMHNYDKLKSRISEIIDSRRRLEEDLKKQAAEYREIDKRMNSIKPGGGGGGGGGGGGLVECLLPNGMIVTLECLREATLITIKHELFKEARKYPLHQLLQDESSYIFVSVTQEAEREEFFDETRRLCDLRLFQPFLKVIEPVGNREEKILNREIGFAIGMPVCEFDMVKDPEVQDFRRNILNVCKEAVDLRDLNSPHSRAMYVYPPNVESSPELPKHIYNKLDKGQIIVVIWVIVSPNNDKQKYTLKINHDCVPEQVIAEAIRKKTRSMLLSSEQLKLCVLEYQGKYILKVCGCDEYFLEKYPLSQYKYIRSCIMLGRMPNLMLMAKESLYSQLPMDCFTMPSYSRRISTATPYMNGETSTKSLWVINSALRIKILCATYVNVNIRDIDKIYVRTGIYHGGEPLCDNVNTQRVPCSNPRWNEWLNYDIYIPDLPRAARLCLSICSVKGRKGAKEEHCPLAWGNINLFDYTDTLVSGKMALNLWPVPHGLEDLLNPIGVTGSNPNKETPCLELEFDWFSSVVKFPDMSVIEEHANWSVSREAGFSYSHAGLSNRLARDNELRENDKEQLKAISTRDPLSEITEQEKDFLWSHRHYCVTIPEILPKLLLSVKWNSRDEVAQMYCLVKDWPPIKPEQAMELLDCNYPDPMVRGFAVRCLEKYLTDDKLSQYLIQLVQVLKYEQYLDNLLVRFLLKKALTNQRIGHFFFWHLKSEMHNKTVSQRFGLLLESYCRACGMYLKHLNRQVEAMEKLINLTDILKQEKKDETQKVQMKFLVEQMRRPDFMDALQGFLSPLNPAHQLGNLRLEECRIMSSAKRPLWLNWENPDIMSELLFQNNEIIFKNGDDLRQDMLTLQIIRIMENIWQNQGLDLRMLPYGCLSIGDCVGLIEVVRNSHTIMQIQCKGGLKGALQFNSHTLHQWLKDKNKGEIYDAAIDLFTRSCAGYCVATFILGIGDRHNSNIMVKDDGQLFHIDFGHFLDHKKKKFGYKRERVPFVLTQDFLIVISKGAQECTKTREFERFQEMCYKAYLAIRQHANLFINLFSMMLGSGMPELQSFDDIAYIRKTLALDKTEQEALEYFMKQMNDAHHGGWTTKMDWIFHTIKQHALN

Structure (SMILES) | IC50 (PI3K beta) [µM] | IC50 (PI3K alfa) [µM] | IC50 (PI3K gamma) [µM] | IC50 (PI3K delta) [µM]
COc1cc(-c2ccc3nc(C)c(-c4cnc(N)c(C(F)(F)F)c4)n3n2)ccc1OCCCN1CCCC1=O [Example 77] | 3.79 | 0.075 | 1.26 | 0.281
COc1cc(-c2ccc3nc(C)c(-c4cnc(N)c(C(F)(F)F)c4)n3n2)ccc1OCCNC(=O)Nc1cccc(C#N)c1 [Example 47] | > 9.1 | 1.81 | 4.5 | > 9.1
COc1ccc(-c2ccc3nc(C)c(-c4ncccc4C)n3n2)cc1OC [Example 16, 6-(3,4-Dimethoxy-phenyl)-2-methyl-3-(3-methyl-pyridin-2-yl)-imidazo[1,2-b]pyridazine] | > 25 | > 25 | > 25 | > 25
COc1cc(-c2ccc3nc(C)c(-c4cnc(N)c(C(F)(F)F)c4)n3n2)ccc1OCCCNC(=O)C(C)C [Example 82] | 4.01 | 0.019 | 0.087 | 0.164
COc1cc(-c2ccc3nc(C)c(-c4cnc(N)c(C(F)(F)F)c4)n3n2)ccc1OCCNC(=O)c1cc(OC)c(OC)c(OC)c1 [Example 41] | > 9.1 | 0.294 | 0.933 | > 9.1
Cc1nc2ccc(-c3ccc(S(C)(=O)=O)cc3)nn2c1-c1cncc(C#N)c1 [Example 19, 5-[6-(4-Methanesulfonyl-phenyl)-2-methyl-imidazo[1,2-b]pyridazin-3-yl]-nicotinonitrile] | 12.3 | 1.29 | 5.18 | 5.5
CCOc1ccc(-c2ccc3nc(C)c(-c4ccc(-c5ccc(C#N)nc5)nc4)n3n2)cc1OC [Example 13, 5-[6-(4-Ethoxy-3-methoxy-phenyl)-2-methyl-imidazo[1,2-b]pyridazin-3-yl]-[2,3]bipyridinyl-6′-carbonitrile] | 4.16 | 0.058 | > 25 | > 25
COc1ccc(-c2c(C)nc3ccc(-c4ccc(OC)c(OC)c4)nn23)cn1 [Example 3] | 2.31 | 0.0964 | – | 0.514

Results, then the molecule that gave them:

IC50 (PI3K beta) [µM] | IC50 (PI3K alfa) [µM] | IC50 (PI3K gamma) [µM] | IC50 (PI3K delta) [µM] | Structure (SMILES)
> 9.1 | 0.367 | > 9.1 | 6.78 | COc1cc(-c2ccc3nc(C)c(-c4cnc(N)c(C(F)(F)F)c4)n3n2)ccc1OCCNC(=O)c1ccc(N2CCOCC2)cc1 [Example 94, N-(2-{4-[3-(6-Amino-5-trifluoromethyl-pyridin-3-yl)-2-methyl-imidazo[1,2-b]pyridazin-6-yl]-2-methoxy-phenoxy}-ethyl)-4-morpholin-4-yl-benzamide]
> 9.1 | 2.21 | 1.05 | 1.04 | Cc1nc2ccc(-c3ccc(OCCCN4CCCC4=O)cc3)nn2c1-c1ccc(S(C)(=O)=O)cc1 [Example 106, 1-(3-{4-[3-(4-Methanesulfonyl-phenyl)-2-methyl-imidazo[1,2-b]pyridazin-6-yl]-phenoxy}-propyl)-pyrrolidin-2-one]
> 9.1 | 1.64 | 6.86 | > 9.1 | COc1cccc(NC(=O)NCCCOc2cc(-c3ccc4nc(C)c(-c5cnc(N)c(C(F)(F)F)c5)n4n3)ccc2OC)c1 [Example 89, 1-(3-{5-[3-(6-Amino-5-trifluoromethyl-pyridin-3-yl)-2-methyl-imidazo[1,2-b]pyridazin-6-yl]-2-methoxy-phenoxy}-propyl)-3-(3-methoxy-phenyl)-urea]
> 9.1 | 1.78 | > 9.1 | > 9.1 | COc1cc(-c2ccc3nc(C)c(-c4cnc(N)c(C(F)(F)F)c4)n3n2)ccc1OC1CCN(C(=O)OC(C)(C)C)CC1 [Example 92, 4-{4-[3-(6-Amino-5-trifluoromethyl-pyridin-3-yl)-2-methyl-imidazo[1,2-b]pyridazin-6-yl]-2-methoxy-phenoxy}-piperidine-1-carboxylic acid tert-butyl ester]
2.08 | 0.031 | 0.477 | 0.255 | COc1cc(-c2ccc3nc(C)c(-c4cnc(N)c(C(F)(F)F)c4)n3n2)ccc1OCCN1CCNC1=O [Example 104, 1-(2-{4-[3-(6-Amino-5-trifluoromethyl-pyridin-3-yl)-2-methyl-imidazo[1,2-b]pyridazin-6-yl]-2-methoxy-phenoxy}-ethyl)-imidazolidin-2-one]
> 9.1 | 0.276 | 1.16 | 0.397 | COc1ccc(-c2ccc3nc(C)c(-c4ccnc(-n5ccnc5)n4)n3n2)cc1OC [Example 83, 6-(3,4-Dimethoxy-phenyl)-3-(2-imidazol-1-yl-pyrimidin-4-yl)-2-methyl-imidazo[1,2-b]pyridazine]
> 9.1 | 2.99 | > 9.1 | 2.56 | CCS(=O)(=O)c1ccc(-c2c(C)nc3ccc(-c4ccc(OC5CCNCC5)c(OC)c4)nn23)cc1 [Example 102, 3-(4-Ethanesulfonyl-phenyl)-6-[3-methoxy-4-(piperidin-4-yloxy)-phenyl]-2-methyl-imidazo[1,2-b]pyridazine]
> 9.1 | 9.09 | > 9.1 | > 9.1 | COc1cc(-c2ccc3nc(C)c(-c4ccc(S(C)(=O)=O)cc4)n3n2)ccc1OC1CCN(C(=O)OC(C)(C)C)CC1 [Example 98, 4-{4-[3-(4-Methanesulfonyl-phenyl)-2-methyl-imidazo[1,2-b]pyridazin-6-yl]-2-methoxy-phenoxy}-piperidine-1-carboxylic acid tert-butyl ester]
> 9.1 | 2.15 | 8.51 | 4 | COc1ccc(-c2ccc3nc(C)c(-c4ccnc(NCc5ccccc5)n4)n3n2)cc1OC [Example 86, Benzyl-{4-[6-(3,4-dimethoxy-phenyl)-2-methyl-imidazo[1,2-b]pyridazin-3-yl]-pyrimidin-2-yl}-amine]
> 9.1 | 0.118 | 1.33 | 0.966 | COc1ccc(-c2ccc3nc(C)c(-c4cnc(N)c(C(F)(F)F)c4)n3n2)cc1OCCCNC(=O)c1ccncc1 [Example 97, N-(3-{5-[3-(6-Amino-5-trifluoromethyl-pyridin-3-yl)-2-methyl-imidazo[1,2-b]pyridazin-6-yl]-2-methoxy-phenoxy}-propyl)-isonicotinamide]
> 9.1 | 1.01 | > 9.1 | 5.11 | Cc1nc2ccc(-c3ccc(OCC4(NC(=O)OC(C)(C)C)COC4)cc3)nn2c1-c1cnc(N)c(C(F)(F)F)c1 [Example 113, (3-{4-[3-(6-Amino-5-trifluoromethyl-pyridin-3-yl)-2-methyl-imidazo[1,2-b]pyridazin-6-yl]-phenoxymethyl}-oxetan-3-yl)-carbamic acid tert-butyl ester]
